The target in series [1] is T1, TcMevK (Tribolium castaneum, UniProt D2A4R0, K234A).
T1 construct: gene AUGUSTUS-3.0.2_15408; N-terminal His6 tag (pET28a-derived vector), expressed in E. coli BL21(DE3), Ni-chelating and Superdex 200 purified
T1 sequence (D2A4R0 1-396 K234A): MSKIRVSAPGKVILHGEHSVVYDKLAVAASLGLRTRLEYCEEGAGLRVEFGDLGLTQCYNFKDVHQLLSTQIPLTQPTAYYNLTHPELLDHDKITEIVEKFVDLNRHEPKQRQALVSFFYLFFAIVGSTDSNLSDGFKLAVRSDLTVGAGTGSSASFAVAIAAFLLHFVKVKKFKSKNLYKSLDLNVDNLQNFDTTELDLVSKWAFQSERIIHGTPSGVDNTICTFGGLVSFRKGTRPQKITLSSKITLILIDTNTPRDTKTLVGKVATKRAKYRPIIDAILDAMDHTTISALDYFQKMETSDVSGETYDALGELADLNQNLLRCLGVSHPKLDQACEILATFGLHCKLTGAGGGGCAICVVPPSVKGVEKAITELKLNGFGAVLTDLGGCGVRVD
The experiment in a line: intrinsic fluorescence quenching, excitation […] nm. It is filed as binding. Particulars: read-out: KD Value for Mev.

Series [2] has as its target T2, TcMevK (Tribolium castaneum, UniProt D2A4R0, V264A).
T2 construct: gene AUGUSTUS-3.0.2_15408; N-terminal His6 tag (pET28a-derived vector), expressed in E. coli BL21(DE3), Ni-chelating and Superdex 200 purified
T2 sequence (D2A4R0 1-396 V264A): T1 sequence (D2A4R0 1-396 K234A)
The experiment in a line: intrinsic fluorescence quenching, excitation […] nm. Type of series: binding. Particulars: read-out: KD Value for Mev.

Series [3] deals with T3, TcMevK (Tribolium castaneum, UniProt D2A4R0, S217A).
T3 construct: gene AUGUSTUS-3.0.2_15408; N-terminal His6 tag (pET28a-derived vector), expressed in E. coli BL21(DE3), Ni-chelating and Superdex 200 purified
T3 sequence (D2A4R0 1-396 S217A): T1 sequence (D2A4R0 1-396 K234A)
Put plainly: intrinsic fluorescence quenching, excitation […] nm. It is filed as binding. Particulars: read-out: KD Value for Mev.

The target of series [4] is T4, TcMevK (Tribolium castaneum, UniProt D2A4R0).
T4 construct: gene AUGUSTUS-3.0.2_15408; N-terminal His6 tag (pET28a-derived vector), expressed in E. coli BL21(DE3), Ni-chelating and Superdex 200 purified
T4 sequence (D2A4R0 1-396): T1 sequence (D2A4R0 1-396 K234A)
The experiment in a line: intrinsic fluorescence quenching, excitation […] nm. It is filed as binding. Particulars: read-out: KD Value for Mev.

The target of series [5] is T5, TcMevK (Tribolium castaneum, UniProt D2A4R0, D220A).
T5 construct: gene AUGUSTUS-3.0.2_15408; N-terminal His6 tag (pET28a-derived vector), expressed in E. coli BL21(DE3), Ni-chelating and Superdex 200 purified
T5 sequence (D2A4R0 1-396 D220A): T1 sequence (D2A4R0 1-396 K234A)
The experiment in a line: intrinsic fluorescence quenching, excitation […] nm. Particulars: read-out: KD Value for Mev. It is filed as binding.

Series [6] concerns the target T6, TcMevK (Tribolium castaneum, UniProt D2A4R0, V21A).
T6 construct: gene AUGUSTUS-3.0.2_15408; N-terminal His6 tag (pET28a-derived vector), expressed in E. coli BL21(DE3), Ni-chelating and Superdex 200 purified
T6 sequence (D2A4R0 1-396 V21A): T1 sequence (D2A4R0 1-396 K234A)
The experiment in a line: intrinsic fluorescence quenching, excitation […] nm. It is filed as binding. Particulars: read-out: KD Value for Mev.

Series [7] has as its target T7, TcMevK (Tribolium castaneum, UniProt D2A4R0, K11A).
T7 construct: gene AUGUSTUS-3.0.2_15408; N-terminal His6 tag (pET28a-derived vector), expressed in E. coli BL21(DE3), Ni-chelating and Superdex 200 purified
T7 sequence (D2A4R0 1-396 K11A): T1 sequence (D2A4R0 1-396 K234A)
Put plainly: intrinsic fluorescence quenching, excitation […] nm. Type of series: binding. Particulars: read-out: KD Value for Mev.

Substrate in series [8]: C[C@@](O)(CCO)CC(=O)O
Put plainly: purified protein. It is filed as biochemical, Tribolium castaneum. Particulars: 5 mM ATP, 16 mM MgCl2, 75 mM KCl; Mev 0–500 μM; pH and temperature not stated for this assay.

The source of these data is publication PMC10931659, “Structural Characterization and Functional Analysis of Mevalonate Kinase from Tribolium castaneum (Red Flour Beetle)” (International Journal of Molecular Sciences, 2024).

One may read the Kd as the concentration at which binding is half-saturated. As usually defined, the Km is the substrate concentration at which the rate is half of its maximum.

With `C[C@@](O)(CCO)CC(=O)O` [mevalonate], the Kd is 89.5 ± 2.45 µM in series [1]; 57.1 ± 1.83 µM in series [2]; 70.2 ± 1.06 µM in series [3]; 30 ± 0.93 µM in series [4]; 47.5 ± 2.17 µM in series [5]; 51.7 ± 2.16 µM in series [6]. In addition, in series [7], the Kd amounted to 75.8 ± 0.84 µM.

B1: TcMevK (Tribolium castaneum) (protein)
chain: T1 sequence (D2A4R0 1-396 K234A)
notes: N-terminal His6 tag (pET28a-derived vector), expressed in E. coli BL21(DE3), Ni-chelating and Superdex 200 purified
Take B1: the Km in series [8] is 32.71 ± 1.09 µM.
